Measured values: ChEMBL document CHEMBL1153842, “Trioxaquines and heme-artemisinin adducts inhibit the in vitro formation of hemozoin better than chloroquine” (Antimicrob Agents Chemother, 2007)
Active and inactive are the calls of the source. The rule behind the calls is not given here.

Key:
Assay type in all cases: functional
[1] = biological target: T1, Histidine-rich protein PFHRP-II (Plasmodium falciparum) (UniProt P05227); experiment: Inhibition of beta-hematin formation at drug to heme molar equivalent ratio of 15 by infrared spectra measured after 18 hrs
T1 sequence (whole entry): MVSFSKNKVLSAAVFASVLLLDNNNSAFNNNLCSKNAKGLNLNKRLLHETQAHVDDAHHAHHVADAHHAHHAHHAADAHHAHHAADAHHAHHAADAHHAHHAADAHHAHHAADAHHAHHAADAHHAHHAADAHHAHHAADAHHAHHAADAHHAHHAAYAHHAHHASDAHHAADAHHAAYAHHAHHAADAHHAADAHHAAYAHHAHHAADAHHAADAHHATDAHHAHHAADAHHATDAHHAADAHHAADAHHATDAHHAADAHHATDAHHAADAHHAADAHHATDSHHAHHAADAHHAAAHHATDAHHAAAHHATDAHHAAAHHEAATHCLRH

[2] = biological target: T1, Histidine-rich protein PFHRP-II (Plasmodium falciparum); experiment: Inhibition of beta-hematin formation at 1:1 drug to heme ratio by infrared spectra measured after 18 hrs
[3] = biological target: T1, Histidine-rich protein PFHRP-II (Plasmodium falciparum); experiment: Inhibition of beta-hematin formation at drug to heme molar equivalent ratio of 10 by infrared spectra measured after 18 hrs
[4] = biological target: T1, Histidine-rich protein PFHRP-II (Plasmodium falciparum); experiment: Inhibition of beta-hematin formation at drug to heme molar equivalent ratio of 2 by infrared spectra measured after 18 hrs
[5] = biological target: T1, Histidine-rich protein PFHRP-II (Plasmodium falciparum); experiment: Inhibition of beta-hematin formation at drug to heme molar equivalent ratio of 3 by infrared spectra measured after 18 hrs

CO[C@H]1O[C@@H]2O[C@@]3(C)CC[C@H]4[C@H](C)CC[C@@H]([C@H]1C)[C@@]24OO3
Activity [1]: inactive

C[C@H]1[C@H](OC(=O)CCC(=O)O)O[C@@H]2O[C@@]3(C)CC[C@H]4[C@H](C)CC[C@@H]1[C@@]24OO3
Activity [1]: inactive

C[C@@H]1CC[C@H]2[C@@H](C)C(=O)O[C@@H]3O[C@@]4(C)CC[C@@H]1[C@]32OO4
Activity [2]: Active | Activity [1]: inactive

COc1cc(NC(C)CCCN)c2ncccc2c1 (centres undefined)
Activity [1]: inactive

NCCNc1ccnc2cc(Cl)ccc12
Activity [3]: Active

CC(C)C1=CC2OC3(CCC(NCCNc4ccnc5cc(Cl)ccc45)CC3)OOC2CC1 (centres undefined)
Activity [4]: Active

COc1cc(NC(C)CCCNC2CCC3(CC2)OOC2CCC(C(C)C)=CC2O3)c2ncccc2c1 (centres undefined)
Activity [5]: Active

CCN(CC)CCCC(C)Nc1ccnc2cc(Cl)ccc12 (centres undefined)
Activity [3]: Active
